Source: patent US8173694B2, “Therapeutic agent” (Pentraxin Therapeutics Limited, priority 2001, dated 2012)

Assays:
[1] = target: T1, 125I-labelled human SAP (Homo sapiens, UniProt P02743); assay: Human SAP tracer in amyloid deposits of mice with AA amyloidosis; assay type: in vivo, mouse
T1 construct: intravenous injection of ^125I-labelled pure human or mouse SAP at time zero
Description: (§1) Clearance from the amyloid deposits, catabolism and excretion of the human SAP tracer were monitored globally by whole body counting of the mice (left), and the total amount of mouse SAP in the amyloidotic organs was determined after killing the animals on day 5 (right). […] Immediately after the 15 minute bleed, two groups, one that had received human SAP and the other mouse SAP, received a single intraperitoneal injection of 5 mg of (R)-1-[6-(R)-2-Carboxy-pyrrolidin-1-yl]-6-oxo-hexanoyl]pyrrolidine-2-carboxylic acid (desapin). Tracer remaining in the circulation is expressed as the mean (SD) percentage of the amount at the 15 minute time point for each group. […] In one of each of the pairs of groups receiving mouse or human SAP respectively, the tracer had been mixed with (R)-1-[6-(R)-2-Carboxy-pyrrolidin-1-yl]-6-oxo-hexanoyl]pyrrolidine-2-carboxylic acid (desapin) and incubated in vitro before injection into the animals. Tracer remaining in the circulation is expressed as mean (SD) total radioactivity per gram of blood in each group. Bottom panel: effect of administration of (R)-1-[6-(R)-2-Carboxy-pyrrolidin-1-yl]-6-oxo-hexanoyl]pyrrolidine-2-carboxylic acid (desapin) in the drinking water at the concentrations shown, on circulating human SAP values in human SAP transgenic mice. Mice of approximately 20 g body weight consume about 3 ml water per day.
(§2) When (R)-1-[6-(R)-2-Carboxy-pyrrolidin-1-yl]-6-oxo-hexanoyl]pyrrolidine-2-carboxylic acid was administered by continuous infusion for 5 days via an indwelling osmotic pump, it dissociated both radiolabelled human SAP tracer, with which the amyloid deposits had previously been loaded, and all the endogenous mouse SAP in the deposits (FIG. 3). […] The SAP-(R)-1-[6-(R)-2-Carboxy-pyrrolidin-1-yl]-6-oxo-hexanoyl]pyrrolidine-2-carboxylic acid complex is evidently recognised as abnormal in vivo and swiftly removed from the circulation, but is apparently formed and/or cleared less efficiently in vivo with mouse SAP compared to human SAP.

[2] = target: SAP (Homo sapiens, UniProt P02743); assay: Circulating human SAP in human SAP transgenic mice, drug in drinking water; assay type: in vivo, mouse; set-up: on circulating human SAP values in human SAP transgenic mice; from tissue; host or cells: plasma of human SAP transgenic mice; conditions: drug in the drinking water
Description: as §1, with “day. […]” for “day.”

[3] = target: T2, radiolabelled human SAP (Homo sapiens, UniProt P02743); assay: Plasma clearance of radiolabelled human SAP tracer in mice; assay type: in vivo, mouse
T2 construct: intravenous injection of ^125I-labelled pure human or mouse SAP at time zero
Description: as §1, with “day. […]” for “day.”

[4] = target: T3, circulating SAP (Mus musculus, UniProt P12246); assay: Circulating SAP in normal wild type mice; assay type: in vivo; conditions: none of the routes caused depletion
T3 construct: all the endogenous mouse SAP in the deposits; from tissue; host or cells: mice in vivo: amyloidotic organs, or plasma of normal wild type mice
T3 sequence (P12246 21-224): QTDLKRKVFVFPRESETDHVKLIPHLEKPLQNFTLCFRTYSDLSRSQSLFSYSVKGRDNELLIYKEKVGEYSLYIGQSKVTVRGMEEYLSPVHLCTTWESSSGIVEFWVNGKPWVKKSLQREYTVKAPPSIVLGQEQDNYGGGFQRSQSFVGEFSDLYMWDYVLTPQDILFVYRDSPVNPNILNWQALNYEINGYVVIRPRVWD
Description: as §2

[5] = target: T4, isolated pure human CRP (Homo sapiens, UniProt P02741); assay: Size exclusion chromatography of isolated pure CRP mixed with drug; assay type: binding
T4 sequence (P02741 19-224): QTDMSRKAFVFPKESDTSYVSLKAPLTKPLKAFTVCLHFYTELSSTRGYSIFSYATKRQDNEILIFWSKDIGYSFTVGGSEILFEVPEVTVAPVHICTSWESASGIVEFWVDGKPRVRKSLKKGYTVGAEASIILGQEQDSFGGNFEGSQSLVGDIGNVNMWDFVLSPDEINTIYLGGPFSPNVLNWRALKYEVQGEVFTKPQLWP
Description: C-reactive protein (CRP) is a pentraxin closely related to SAP. Samples of isolated pure human SAP or CRP were mixed with (R)-1-[6-(R)-2-Carboxy-pyrrolidin-1-yl]-6-oxo-hexanoyl]pyrrolidine-2-carboxylic acid at the molar ratios shown, with respect to pentraxin protomer, in physiological ionic strength Tris buffered saline pH 8.0, and analysed by size exclusion chromatography precisely as described previously (14). The mixtures and the column eluants contained either no calcium ions or 2 mM calcium, and the concentrations of drug appropriate to maintain the molar ratios indicated above. In the absence of a specific ligand to which it can bind, purified human SAP is insoluble in the presence of calcium and elutes as high molecular weight aggregates in the void volume of the column (14). However in the absence of calcium and ligand, isolated SAP alone forms stable decamers, providing an excellent marker for the elution volume of this molecular assembly (14). Human CRP is a stable pentamer either in the presence or absence of calcium and thus provides a robust marker for the elution position of that molecular form (14).

[6] = target: T5, mouse SAP (Mus musculus, UniProt P12246); assay: Endogenous mouse SAP in amyloid deposits of mice with AA amyloidosis; assay type: in vivo
T5 construct: all the endogenous mouse SAP in the deposits; from tissue; host or cells: mice in vivo: amyloidotic organs, or plasma of normal wild type mice
T5 sequence (P12246 21-224): T3 sequence (P12246 21-224)
Description: as §1, with “day. […]” for “day.”

[7] = target: T6, radiolabelled mouse SAP (Mus musculus, UniProt P12246); assay: Plasma clearance of radiolabelled mouse SAP tracer in mice; assay type: in vivo
T6 construct: intravenous injection of ^125I-labelled pure human or mouse SAP at time zero
T6 sequence (P12246 21-224): T3 sequence (P12246 21-224)
Description: as §1, with “day. […]” for “day.”

[8] = continuous infusion for 5 days via osmotic pump
[9] = single intraperitoneal injection of 5 mg
[10] = tracer preincubated with drug before intravenous injection into normal mice
[11] = drug:protein 1:1, calcium present
[12] = drug:protein 10:1, calcium present

T1 sequence (P02743 20-223): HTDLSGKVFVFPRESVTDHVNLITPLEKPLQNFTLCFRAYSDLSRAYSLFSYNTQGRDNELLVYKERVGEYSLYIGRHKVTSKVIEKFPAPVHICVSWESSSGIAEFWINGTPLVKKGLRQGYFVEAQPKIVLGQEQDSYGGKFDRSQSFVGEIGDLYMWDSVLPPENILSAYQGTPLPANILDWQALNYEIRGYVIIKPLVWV
T2 sequence (P02743 20-223): as above
Chain of SAP (P02743 20-223): as above

Dissociation of human SAP from amyloid deposits ([1]; 50 μg/kg/day, continuous infusion): significantly dissociated
Dissociation of radiolabelled human SAP tracer from amyloid deposits [1, 8]: dissociated
Uptake of radiolabelled human SAP tracer into mouse AA amyloid deposits ([1]; intermittent intraperitoneal or subcutaneous injection): inhibited uptake
Circulating human SAP [2]: rapidly depleted
Plasma clearance of radiolabelled human SAP tracer [3, 9]: accelerated
Clearance of radiolabelled human SAP preincubated with drug in vitro [3, 10]: extremely rapidly cleared
Elution volume [5, 11]: 12.58 mL
Molecular assembly [5, 11]: Pentamer
Elution volume [5, 12]: 11.96 mL
Molecular assembly [5, 12]: Pentamer
Removal of endogenous mouse SAP from amyloid deposits ([6]; 15 mg/kg/day, continuous infusion): removed all the mouse SAP
Dose required to dissociate any endogenous mouse SAP significantly [6, 8]: 1.5 mg/kg/day
Clearance of radiolabelled mouse SAP [7, 9]: no significant effect
Clearance of radiolabelled mouse SAP preincubated with drug in vitro [7, 10]: extremely rapidly cleared
SMILES: O=C(O)[C@H]1CCCN1C(=O)CCCCC(=O)N1CCC[C@@H]1C(=O)O [(R)-1-[6-(R)-2-Carboxy-pyrrolidin-1-yl]-6-oxo-hexanoyl]pyrrolidine-2-carboxylic acid]
Routes that caused depletion of circulating SAP in normal wild type mice [4]: neither oral administration, nor intermittent injection or continuous infusion
